One series deals with ulcer formation. To be noted: in vivo; cited from earlier work.
For a further series, the target named is H-2 receptors (Rattus norvegicus, UniProt P25102). Nature of the series: Rat uterus assay: reversal of histamine inhibition of electrically induced contractions. To be noted: isolated rat uterine smooth muscle; dose ratios of 2 or more indicate activity. As for the experimental part:
Histamine reduces contractions induced by electrical stimulation of the isolated rat uterine smooth muscle, and histamine H-2 antagonists reverse this inhibition. The dose ratio for a specific concentration of test compound is determined by an assay procedure that compares the inhibitory effect of two concentrations of histamine in the presence of the test compound to the inhibitory effect of two concentrations of histamine in the absence of the test compound. The dose ratio is defined as the ratio of the concentration of histamine in the presence of the test compound to the concentration of histamine in the absence of the test compound where both concentrations produce the same inhibition of the electrical response. Dose ratios of 2 or more indicate activity. Compounds that are active at 40 ug/ml will be tested against isoproterenol at the same concentration in a similar test. Compound concentrations that are active against histamine but not against isoproterenol will be classified as specific H-2 antagonists.
The same type of receptors H-2 are involved in inhibition of contractions of the rat uterus and stimulation of gastric acid secretion. The rat uterus is therefore used as a model upon which to test for histamine H-2 antagonists that may be effective in treating peptic ulcers.

In another series the test system is gastric acid secretion. To be noted: in vivo; cited from earlier work.
The conditions of series [1]: humans; cited from earlier work.
A further series relates to H2 receptor. The experiment in a line: Lipolysis assay: histamine-stimulated lipolysis in isolated fat cells. The series is classed as cell-based. To be noted: isolated dog fat cells, histamine 2×10^-6 M; active = 50 percent or more inhibition. The protocol: Isolated fat cells of dogs are prepared from adipose tissue. Cells are incubated in the presence or absence of histamine at 2×10^-6 M. Additional flasks contain the compound to be tested, plus histamine. At the end of the incubation the cell cultures are analyzed for glycerol content, and results are converted into a lipolysis rate. The stimulation of lipolysis attributed to histamine (D) is the difference between the rate observed in its presence and absence:
These figures are then converted to a percent inhibition by the formula:
Percent inhibition=(D-E)/D×100

The structures appear in SMILES notation.

H-2 receptors, sequence (P25102 whole entry): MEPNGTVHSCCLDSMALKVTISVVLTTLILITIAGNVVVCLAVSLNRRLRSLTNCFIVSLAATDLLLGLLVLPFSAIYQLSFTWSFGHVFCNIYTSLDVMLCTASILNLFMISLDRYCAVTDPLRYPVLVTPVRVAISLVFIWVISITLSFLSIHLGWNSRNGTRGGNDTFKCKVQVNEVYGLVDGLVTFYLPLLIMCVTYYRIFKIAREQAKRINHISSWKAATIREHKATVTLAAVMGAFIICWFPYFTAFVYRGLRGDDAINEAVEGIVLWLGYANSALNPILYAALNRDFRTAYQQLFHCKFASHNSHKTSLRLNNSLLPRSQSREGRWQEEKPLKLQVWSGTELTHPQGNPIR

As to `CNC(=S)NCCCCc1cnc[nH]1` [burimamide], the ulcer formation entry in the series on ulcer formation is “inhibit”. Besides, on H-2 receptors, the “activity in rat uterus assay” value is “active”. In the series on gastric acid secretion, the gastric acid secretion result was “inhibit”.

For the molecule `CN/C(=N/CCSCc1nc[nH]c1C)NC#N` [cimetidine], in series [1], the severe toxic symptoms entry was “no severe toxic symptoms”; the untoward effects observed entry was “gynecomastia, elevated SGOT, SGPT and creatine, and increases in serum gastrin”. In the series with ulcer formation, the ulcer formation entry was “inhibit”. Moreover, the “activity in rat uterus assay” value on H-2 receptors is “active”. Also, the “classification in lipolysis assay (active against histamine but not norepinephrine = specific)” value with H2 receptor is “specific inhibitors”. Also, the gastric acid secretion entry in the series on gastric acid secretion is “inhibit”.

On to `C/N=C(\S)NCCSCc1[nH]cnc1C` [metiamide], for which the ulcer formation entry with ulcer formation is reported as “inhibit”. Also, the “activity in rat uterus assay” value on H-2 receptors is “active”. Moreover, in the series with H2 receptor, the “classification in lipolysis assay (active against histamine but not norepinephrine = specific)” value is “specific inhibitors”. The gastric acid secretion result with gastric acid secretion was “inhibit”.

The values are drawn from patent US4386211A, “Anti-ulcer urea compounds” (G. D. Searle & Co., priority 1981, dated 1983).
